Assay results reported in ChEMBL document CHEMBL1131995, “Synthesis and pharmacological profile of 1-aryl-3-substituted pyrrolo[3,2-c]quinolines” (Bioorg Med Chem Lett, 1999).

Assays:
Rattus norvegicus = experiment: Compound was tested in vivo for gastric antisecretory activity after 5 hr of pylorus ligation of SD rat; format: functional; details: Stomach
[1] = target: Potassium-transporting ATPase (Oryctolagus cuniculus); experiment: Compound was tested in vitro for H+/K+ ATPase activity in rabbit stomach preparations

SMILES | IC50 [1] | ED50 (Rattus norvegicus)
COc1ccc2[nH]c([S+]([O-])Cc3ncc(C)c(OC)c3C)nc2c1 (stereo unspecified) [OMEPRAZOLE] |  | 3.2 mg/kg
COc1cccc2c1ncc1c(CO)cn(-c3ccc(F)cc3C)c12 | > 100 µM | 
COc1cccc2c1ncc1c(CCO)cn(-c3ccccc3C)c12 | 80 µM | 
COc1cccc2c1ncc1c(CO)cn(-c3ccccc3C)c12 | 100 µM | 
COc1cccc2c1ncc1c(CCO)cn(-c3ccc(F)cc3C)c12 | > 100 µM | 
Cc1ccccc1-n1cc(C)c2cnc3c(OC(F)(F)F)cccc3c21 | > 100 µM | 
COc1cccc2c1nc(C)c1c(C)cn(-c3ccccc3C)c12 | > 100 µM | 

Further lines, with some results ahead:

IC50 [1] | SMILES | ED50 (Rattus norvegicus)
17 µM | COc1cccc2c1ncc1c(C(C)C)cn(-c3ccccc3C)c12 | 90 mg/kg
72 µM | COc1cccc2c1nc(C)c1c(C)cn(-c3ccc(F)cc3C)c12 | 
4.8 µM | CCc1cn(-c2ccc(O)cc2C)c2c1cnc1c(OC)cccc12 | 59 mg/kg
5.7 µM | CCc1cn(-c2ccc(F)cc2C)c2c1cnc1c(OC)cccc12 | 13 mg/kg
4.8 µM | Cc1ccccc1-n1cc(C)c2cnc3c(O)cccc3c21 | 58 mg/kg
7.2 µM | COc1cccc2c1ncc1c(C(C)C)cn(-c3ccc(O)cc3C)c12 | 49 mg/kg
8.2 µM | COc1cccc2c1ncc1c(C)cn(-c3ccccc3C)c12 | 13 mg/kg
3.4 µM | COc1cccc2c1ncc1c(C)cn(-c3ccc(OC(C)=O)cc3C)c12 | 47 mg/kg
14 µM | COc1cccc2c1ncc1c(C)cn(-c3ccc(F)cc3C)c12 | 10 mg/kg
18 µM | CCCC(=O)c1cnc2c(OC)cccc2c1Nc1ccccc1C | 20 mg/kg
